Source: patent US11793845B2, “Composition for ameliorating peripheral sensory neuropathy” (KINKI UNIVERSITY, priority 2016, dated 2023)

Experiments:
[1] = test system: Peripheral Sensory Neuropathy Induced by Paclitaxel in Mice; test: von Frey test, paclitaxel-induced peripheral sensory neuropathy; type: in vivo; conditions: duloxetine 30 mg/kg daily
Source text: The mice in the three groups in the above (1) were put in a cage and a filament having a strength of 0.16 g was pressed on the plantar surface of the leg to measure the number of times (a score) of avoidance response.
Male Balb/c mice of 6 to 7 weeks old were used as in Example 1. The mice were divided into three groups: a control group, a paclitaxel administration group, and a paclitaxel and Lentinus edodes mycelium extract administration group (paclitaxel+Lentinus edodes mycelium extract administration group). Paclitaxel was administered to each mouse once a day at a dose of 6 mg/kg. Further, the Lentinus edodes mycelium extract was administered to each mouse once a day at a dose of 2 g/kg.
Further, the number of times of administration was set to once a week (on Day 0, Day 7, and Day 14) for paclitaxel and daily (from Day 0 to Day 15) for the Lentinus edodes mycelium extract in both the von Frey test and the cold plate test below.
Evaluation was performed in the same manner as in the test with oxaliplatin. Referring to FIG. 3, the horizontal axis indicates an elapsed time after administration (days) and the vertical axis indicates the avoidance response (scores). Open circles with a solid line represent the control group. Filled circles with a solid line represent the group in which only paclitaxel was administered. Open squares with a dash line represent the group in which paclitaxel and the Lentinus edodes mycelium extract were administered (paclitaxel+Lentinus edodes mycelium extract administration group). When the difference with the control group was determined to be significant using a significance level of 5%, the data were marked by “*”.
In the present test, the mice were divided into six groups by a difference in test objects. As in Example 1, male Balb/c mice of 6 to 7 weeks old were used. […]

[2] = test system: Peripheral Sensory Neuropathy Induced by Paclitaxel in Mice; test: cold plate test, paclitaxel-induced peripheral sensory neuropathy; type: in vivo; conditions: duloxetine 30 mg/kg daily
Description: The effect of the Lentinus edodes mycelium extract on the paresthesia to cold stimulation was tested by performing the cold plate test. The mice in the three groups in the above (1) were put on a cold plate set to 10° C. and a response time for avoidance (a latency) was measured. The shorter latency means that the mouse avoids the cold stimulation of the cold plate more.
In the present test, the mice were divided into four groups by a difference in test objects. As in Example 1, male Balb/c mice of 6 to 7 weeks old were used. The mice were divided into a total of four groups, a control group, a paclitaxel administration group, and two different paclitaxel and Lentinus edodes mycelium extract administration groups (paclitaxel+Lentinus edodes mycelium extract administration groups). […] Further, a group in which the Lentinus edodes mycelium extract was administered to each mouse once a day at a dose of 1 g/kg (hereinafter referred to as “1 g/kg administration group”) and a group in which the Lentinus edodes mycelium extract was administered to each mouse once a day at a dose of 2 g/kg (hereinafter referred to as “2 g/kg administration group”) were prepared.
Evaluation was performed in the same manner as in the test with oxaliplatin. Referring to FIG. 4, the horizontal axis indicates the elapsed time after administration (days) and the vertical axis indicates the avoidance response time (seconds). Open circles with a solid line represent the control group. Filled circles with a solid line represent the group in which only paclitaxel was administered. Open squares with a dash line and filled squares with a dash line represent the groups in which paclitaxel and the Lentinus edodes mycelium extract were administered at the same time (paclitaxel+Lentinus edodes mycelium extract administration groups). […] When the difference with the control group was determined to be significant using a significance level of 5%, the data were marked by “*”. […]

SMILES: CNCC[C@H](Oc1cccc2ccccc12)c1cccs1 [duloxetine]
- avoidance score compared with paclitaxel administration group, von Frey test ([1]; 3-day delayed after paclitaxel): almost the same avoidance score as that in the paclitaxel administration group
- avoidance score, von Frey test ([1]; 6-day delayed after paclitaxel): same tendency as that in the duloxetine 3-day delayed administration group
- latency compared with paclitaxel administration group, cold plate test ([2]; 3-day delayed after paclitaxel): almost the same as that in the paclitaxel administration group
- latency, cold plate test ([2]; 6-day delayed after paclitaxel): same tendency as that in the duloxetine 3-day delayed administration group
